Data reported in patent US6040309A, “Benzothiophene derivatives useful in therapy” (Pfizer, Inc., priority 1997, dated 2000).
Bridges are numbered along the chain shown (N, C = ends). Where no end group is shown, it is not given here.

Legend:
ETA receptor = molecular target: T1, ETA receptor (Rattus norvegicus, UniProt P26684); assay: In Vitro Vascular Smooth Muscle Activity, Rat Aorta (ET-1 contraction; Test B); format: cell-based; conditions: read-out: pA2 (converted)
T1 construct: Rat aortae are cleaned of connective tissue and fat and cut into helical strips; from tissue; host or cells: rat aorta, helical strips, endothelium removed
T1 sequence (P26684 21-426): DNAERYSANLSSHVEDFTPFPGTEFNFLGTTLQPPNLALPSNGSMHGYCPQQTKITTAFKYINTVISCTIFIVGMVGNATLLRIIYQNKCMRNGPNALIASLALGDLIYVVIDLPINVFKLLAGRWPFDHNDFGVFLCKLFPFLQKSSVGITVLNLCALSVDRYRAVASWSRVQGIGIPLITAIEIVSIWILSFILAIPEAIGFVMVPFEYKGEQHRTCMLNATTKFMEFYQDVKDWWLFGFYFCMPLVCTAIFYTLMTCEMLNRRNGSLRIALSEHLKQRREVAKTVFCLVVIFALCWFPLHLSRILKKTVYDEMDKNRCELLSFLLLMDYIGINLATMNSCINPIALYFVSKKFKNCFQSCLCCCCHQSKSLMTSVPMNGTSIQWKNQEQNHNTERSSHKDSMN
From the text: B. In Vitro Vascular Smooth Muscle Activity
Rat aortae are cleaned of connective tissue and fat and cut into helical strips approx 4 mm in width. The endothelium is removed by dragging the luminal surface of the tissue gently across filter paper moistened with Krebs solution of composition (mM) NaCl 130, KCl 5.6, NaHCO3 25, Glucose 11.1, NaH2 PO4 0.6, CaCl2 2.16, MgCl2 0.5, gassed with 95% O2 /5% CO2. The strips are mounted in isolated organ baths in Krebs solution under a resting tension of 1 gram. Organ bath solutions are maintained at 37° C. and continuously aerated with 95% O2 /5% CO2. […] After equilibration in the organ bath for 1 hour, tissues are contracted by the addition of KCl to a final concentration of 60 mM. The KCl is removed by replacing the Krebs solution, with two further washes with Krebs solution. To determine the potency of an ETA receptor antagonist, two tissues are cumulatively dosed with ET-1 (0.1 nM-1 μM); other tissues are dosed with ET-1 (0.1 nM-1 μM) in duplicate, beginning 30 minutes after the inclusion in the organ bath medium of the test compound. Sufficient tissues are used per experiment to generate dose-response curves to ET-1 in the absence and the presence of at least 3 concentrations of antagonist. Data are expressed as the mean±s.e.m. Dissociation constants (kb) of competitive antagonists are calculated by the method of Arunlakshana and Schild.

neointimal formation = conditions: cited from earlier work
rabbit ETA receptor = conditions: cited from earlier work
human ETA receptor = conditions: cited from earlier work

Compound	Kb (ETA receptor) [µM]	IC50 (rabbit ETA receptor) [µM]	also measured
O=C(O)c1sc2cc(OCc3cccnc3)ccc2c1Sc1ccccc1O [Example 56]	0.0148	–	–
CCCOc1ccc2c(c1)[C@@H](c1ccc(OC)cc1OCC(=O)O)[C@H](C(=O)O)[C@H]2c1ccc2c(c1)OCO2 [SB-209670]	–	–	reduction in neointimal formation (neointimal formation; relative to control animals): 50%
CC(C)Oc1c(C(=O)O)sc2ccc(OCc3ccccc3)cc12 [5-benzyloxy-3-isopropoxybenzo[b]thiophene-2-carboxylic acid]	–	6	IC50 (human ETA receptor): 8.8 µM
COc1cccc(Sc2c(C(=O)O)sc3ccccc23)c1 [3-[(3-methoxyphenyl)sulfanyl]benzo[b]thiophene-2-carboxylic acid]	–	5.9	–
O=C(O)c1sc2cc(Cn3ccnc3)ccc2c1Sc1ccccc1O [Example 71]	0.229	–	–
ET-1: isoform of endothelin, 21-amino acid peptide, potent vasoconstrictor (CSCSSLMDKECVYFCHLDIIW; disulfide 1-15, 3-11; ends not checked; UniProt P05305 53-73, looked up)	–	–	effect on neointimal formation (neointimal formation; in rats after balloon angioplasty): potentiate neointimal formation
